Reference: PubChem BioAssay (NCI)
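Interpolation was linear, between the two tested concentrations surrounding the appropriate level; five concentrations were tested over 48 hours in 96-well plates. Definition used: TGI = concentration required for complete inhibition of growth.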

Tested on: SN12K1 renal
Assay: NCI tumour cell line growth inhibition, 48 h

`C=C(C)C(=O)NC(N)=NC#N` gave a TGI greater than 56.4 µM.
